Literature values as cited in paper PMC4360375 (Journal of Medicinal Chemistry, 2015).

system: GABA uptake, rat synaptosome; conditions: Figure 2; rat synaptosome GABA uptake; read-out: literature IC50; cited from earlier work

Row | SMILES | IC50 [µM]
1 | O=C(O)[C@@H]1CCCN(CCCCCC(c2ccccc2)c2ccccc2)C1 [compound 9, OC(=O)[C@@H]1CCCN(C1)CCCCCC(c1ccccc1)c1ccccc1] | 1.59

same assay, conditions: literature data set; ref 10.1016/S0968-0896(01)00148-1; cited from earlier work

Row | SMILES | pIC50
2 | O=C(O)[C@@H]1CCCN(CCOC/C(=C/c2ccccc2)c2ccccc2)C1 [An_2001/6_41, O(CCN1C[C@@H](CCC1)C(O)=O)C\C(=C\c1ccccc1)\c1ccccc1] | 6.297
3 | O=C(O)[C@@H]1CCCN(CCO/N=C2\CCCC\C2=C/c2ccccc2)C1 [An_2001/6_26, O(\N=C\1/CCCC/C/1=C\c1ccccc1)CCN1C[C@@H](CCC1)C(O)=O] | 5.013
4 | O=C(O)[C@@H]1CCCN(CCOCc2cccc(Cc3ccccc3)c2)C1 [An_2001/6_38, O(Cc1cc(ccc1)Cc1ccccc1)CCN1C[C@@H](CCC1)C(O)=O] | 5.523
5 | O=C(O)[C@@H]1CCCN(CCO/N=C2\C[C@H](c3ccccc3)c3ccccc32)C1 [An_2001/6_28, O(\N=C\1/C[C@@H](c2c/1cccc2)c1ccccc1)CCN1C[C@@H](CCC1)C(O)=O] | 5.852
6 | O=C(O)[C@@H]1CCCN(CCO/N=C(/Cc2ccc(F)cc2)c2ccc(F)cc2)C1 [An_2001/6_17, Fc1ccc(cc1)C\C(=N\OCCN1C[C@@H](CCC1)C(O)=O)\c1ccc(F)cc1] | 6.036
7 | O=C(O)[C@@H]1CCCN(CCOc2ccccc2-c2ccccc2)C1 [An_2001/6_33, O(CCN1C[C@@H](CCC1)C(O)=O)c1ccccc1-c1ccccc1] | 5.235
8 | CC/C=C(/C=N/OCCN1CCC[C@@H](C(=O)O)C1)c1ccccc1 [An_2001/6_20, O(\N=C\C(=C\CC)\c1ccccc1)CCN1C[C@@H](CCC1)C(O)=O] | 6.125
9 | O=C(O)[C@@H]1CCCN(CCO/N=C(/Cc2ccccc2F)c2ccccc2F)C1 [An_2001/6_18, Fc1ccccc1C\C(=N\OCCN1C[C@@H](CCC1)C(O)=O)\c1ccccc1F] | 7.097
10 | O=C(O)[C@@H]1CCCN(CCO/N=C2\CCCC=C2c2ccccc2)C1 [An_2001/6_25, O(\N=C\1/CCCC=C/1c1ccccc1)CCN1C[C@@H](CCC1)C(O)=O] | 6.456

same assay, conditions: literature data set; ref 10.1021/jm00064a005; cited from earlier work

Row | SMILES | pIC50
11 | Cc1ccsc1/C(=C/CCN1CCC[C@@H](C(=O)O)C1)c1c(C)cccc1C [An_1993_46, s1ccc(C)c1/C(=C/CCN1C[C@@H](CCC1)C(O)=O)/c1c(cccc1C)C] | 6.602
12 | Cc1ccsc1/C(=C/CCN1CCC[C@@H](C(=O)O)C1)c1cccs1 [An_1993_40, s1ccc(C)c1\C(=C\CCN1C[C@@H](CCC1)C(O)=O)\c1sccc1] | 7.222
13 | Cc1ccccc1/C(=C\CCN1CCC=C(C(=O)O)C1)c1sccc1C [An_1993_33, s1ccc(C)c1/C(=C/CCN1CC(=CCC1)C(O)=O)/c1ccccc1C] | 6.886
14 | Cc1ccsc1/C(=C/CCN1CCC=C(C(=O)O)C1)c1ccc(Cl)cc1 [An_1993_48, Clc1ccc(cc1)/C(=C\CCN1CC(=CCC1)C(O)=O)/c1sccc1C] | 6.071

same assay, conditions: literature data set; ref 10.1021/jm980492e; cited from earlier work

Row | SMILES | pIC50
15 | O=C(O)[C@@H]1CCCN(CCOCC=C(c2ccc(Cl)cc2)c2ccc(Cl)cc2)C1 [An_1999/4_(R)-25, Clc1ccc(cc1)\C(=C\COCCN1C[C@@H](CCC1)C(O)=O)\c1ccc(Cl)cc1] | 6.018
16 | O=C(O)[C@@H]1CCCN(CCCOCCCN(c2ccccc2)c2ccccc2)C1 [An_1999/4_(R)-19, O(CCCN1C[C@@H](CCC1)C(O)=O)CCCN(c1ccccc1)c1ccccc1] | 5.523
17 | O=C(O)[C@@H]1CCCN(CCOCCN(c2ccccc2)c2ccccc2)C1 [An_1999/4_(R)-17, O(CCN1C[C@@H](CCC1)C(O)=O)CCN(c1ccccc1)c1ccccc1] | 7.046
18 | O=C(O)[C@@H]1CCCN(CCCCCC(c2ccccc2)c2ccccc2)C1 [compound 9, OC(=O)[C@@H]1CCCN(C1)CCCCCC(c1ccccc1)c1ccccc1] | 5.799
19 | Cc1ccccc1C(CCOCCN1CCC[C@@H](C(=O)O)C1)c1ccccc1C [An_1999/4_(R)-32, O(CCC(c1ccccc1C)c1ccccc1C)CCN1C[C@@H](CCC1)C(O)=O] | 6.444
20 | O=C(O)[C@@H]1CCCN(CCCCCCCC(=O)N(c2ccccc2)c2ccccc2)C1 [An_1999/4_(R)-16] | 5.046
21 | O=C(O)[C@@H]1CCCN(CCCCOCCN(c2ccccc2)c2ccccc2)C1 [An_1999/4_(R)-18, O(CCCCN1C[C@@H](CCC1)C(O)=O)CCN(c1ccccc1)c1ccccc1] | 6.523
22 | O=C(O)[C@@H]1CCCN(CCCCCCN(c2ccccc2)c2ccccc2)C1 [An_1999/4_(R)-13, OC(=O)[C@@H]1CCCN(C1)CCCCCCN(c1ccccc1)c1ccccc1] | 6.18
23 | O=C(O)[C@@H]1CCCN(CCCCN(c2ccccc2)c2ccccc2)C1 [An_1999/4_(R)-11, OC(=O)[C@@H]1CCCN(C1)CCCCN(c1ccccc1)c1ccccc1] | 5.585
24 | O=C(O)[C@@H]1CCCN(CCOCCC(c2ccccc2)c2ccccc2)C1 [compound 8, O(CCC(c1ccccc1)c1ccccc1)CCN1C[C@@H](CCC1)C(O)=O] | 7.26

same assay, conditions: literature data set; ref 10.1021/jm981027k; cited from earlier work

Row | SMILES | pIC50
25 | O=C(O)[C@@H]1CCCN(CCOC=C(c2ccccc2)c2ccccc2)C1 [An_1999/3_47, O(\C=C(\c1ccccc1)/c1ccccc1)CCN1C[C@@H](CCC1)C(O)=O] | 7.066
26 | O=C(O)[C@@H]1CCCN(CCON=C(c2ccccc2Cl)c2ccccc2Cl)C1 [An_1999/3_74, Clc1ccccc1\C(=N\OCCN1C[C@@H](CCC1)C(O)=O)\c1ccccc1Cl] | 7.398
27 | CCc1ccccc1C(=COCCN1CCC=C(C(=O)O)C1)c1ccccc1CC [An_1999/3_104, O(\C=C(\c1ccccc1CC)/c1ccccc1CC)CCN1CC(=CCC1)C(O)=O] | 7.301
28 | Cc1ccccc1/C(=C\OCCN1CCC[C@@H](C(=O)O)C1)c1cccc(F)c1 [An_1999/3_71, Fc1cc(ccc1)/C(=C/OCCN1C[C@@H](CCC1)C(O)=O)/c1ccccc1C] | 7.523
29 | Cc1ccccc1/C(=C\OCCN1CCC[C@@H](C(=O)O)C1)c1ccc(F)cc1C [An_1999/3_99, Fc1cc(C)c(cc1)\C(=C\OCCN1C[C@@H](CCC1)C(O)=O)\c1ccccc1C] | 7.523
30 | CCc1ccccc1C(=COCCN1CCC[C@@H](C(=O)O)C1)c1ccccc1CC [An_1999/3_103, O(\C=C(\c1ccccc1CC)/c1ccccc1CC)CCN1C[C@@H](CCC1)C(O)=O] | 7.523
31 | O=C(O)[C@@H]1CCCN(CCO/C=C(/c2ccccc2)c2ccccc2Cl)C1 [An_1999/3_108, Clc1ccccc1\C(=C/OCCN1C[C@@H](CCC1)C(O)=O)\c1ccccc1] | 7.301
32 | Cc1ccccc1C(=COCCN1CCC[C@@H](C(=O)O)C1)c1ccccc1C [An_1999/3_45, O(\C=C(\c1ccccc1C)/c1ccccc1C)CCN1C[C@@H](CCC1)C(O)=O] | 7.699
33 | CCc1ccsc1C(=NOCCN1CCC[C@@H](C(=O)O)C1)c1sccc1CC [An_1999/3_87, s1ccc(CC)c1\C(=N\OCCN1C[C@@H](CCC1)C(O)=O)\c1sccc1CC] | 7.046
34 | Cc1csc(/C(=N/OCCN2CCC[C@@H](C(=O)O)C2)c2ccccc2C)c1 [An_1999/3_20, s1cc(cc1/C(=N/OCCN1C[C@@H](CCC1)C(O)=O)/c1ccccc1C)C] | 6.108
35 | Cc1ccsc1C(=COCCN1CCC[C@@H](C(=O)O)C1)c1sccc1C [compound 6, s1ccc(C)c1\C(=C\OCCN1C[C@@H](CCC1)C(O)=O)\c1sccc1C] | 7.854
36 | COc1cccc(/C(=N/OCCN2CCC[C@@H](C(=O)O)C2)c2sccc2C)c1 [An_1999/3_86, s1ccc(C)c1\C(=N/OCCN1C[C@@H](CCC1)C(O)=O)\c1cc(OC)ccc1] | 7.046
37 | Cc1ccccc1/C(=C/OCCN1CCC=C(C(=O)O)C1)c1cccc(Cl)c1 [An_1999/3_78, Clc1cc(ccc1)/C(=C\OCCN1CC(=CCC1)C(O)=O)/c1ccccc1C] | 7.222
38 | Cc1ccccc1/C(=C\OCCN1CCC[C@@H](C(=O)O)C1)c1ccccc1Cl [An_1999/3_101, Clc1ccccc1/C(=C/OCCN1C[C@@H](CCC1)C(O)=O)/c1ccccc1C] | 8
39 | O=C(O)[C@@H]1CCCN(CCON=C(c2ccc(F)cc2Cl)c2ccc(F)cc2Cl)C1 [An_1999/3_94, Clc1cc(F)ccc1\C(=N\OCCN1C[C@@H](CCC1)C(O)=O)\c1ccc(F)cc1Cl] | 7
40 | Cc1ccccc1/C(=C\OCCN1CCC[C@@H](C(=O)O)C1)c1ccccc1 [An_1999/3_96, O(\C=C(/c1ccccc1C)\c1ccccc1)CCN1C[C@@H](CCC1)C(O)=O] | 7.699
41 | O=C(O)C1=CCCN(CCOC=C(c2ccccc2Cl)c2ccccc2Cl)C1 [An_1999/3_110, Clc1ccccc1\C(=C\OCCN1CC(=CCC1)C(O)=O)\c1ccccc1Cl] | 7.921
42 | O=C(O)[C@@H]1CCCN(CCOC=C(c2ccccc2Cl)c2ccccc2Cl)C1 [An_1999/3_109, Clc1ccccc1\C(=C\OCCN1C[C@@H](CCC1)C(O)=O)\c1ccccc1Cl] | 7.301
43 | O=C(O)[C@@H]1CCCN(CCO/N=C(/c2cccc(F)c2)c2ccccc2F)C1 [An_1999/3_75, Fc1ccccc1\C(=N/OCCN1C[C@@H](CCC1)C(O)=O)\c1cc(F)ccc1] | 6.658

same assay, conditions: literature data set; ref 10.1021/jm990513k; cited from earlier work

Row | SMILES | pIC50
44 | O=C(O)[C@@H]1CCCN(CCOCCCN2c3ccccc3CCc3ccccc32)C1 [An_2001/5_32, O(CCCN1c2c(CCc3c1cccc3)cccc2)CCN1C[C@@H](CCC1)C(O)=O] | 6.155
45 | O=C(O)[C@@H]1CCCN(CCCOCC=C2c3ccccc3CCc3ccccc32)C1 [An_2001/5_36, O(CCCN1C[C@@H](CCC1)C(O)=O)C\C=C/1\c2c(CCc3c\1cccc3)cccc2] | 6.337
46 | O=C(O)[C@@H]1CCCN(CCOCCC2c3ccccc3CCc3ccccc32)C1 [An_2001/5_37, O(CCC1c2c(CCc3c1cccc3)cccc2)CCN1C[C@@H](CCC1)C(O)=O] | 6.252
47 | O=C(O)[C@@H]1CCCN(CCOCCN2c3ccc(Br)cc3CCc3cc(Br)ccc32)C1 [An_2001/5_31, Brc1cc2CCc3cc(Br)ccc3N(c2cc1)CCOCCN1C[C@@H](CCC1)C(O)=O] | 5.987
48 | O=C(O)C1=CCCN(CCOCCC2c3ccccc3CCc3ccccc32)C1 [An_2001/5_38, O(CCC1c2c(CCc3c1cccc3)cccc2)CCN1CC(=CCC1)C(O)=O] | 5.921
49 | O=C(O)[C@@H]1CCCN(CCON=C2c3cc(Cl)ccc3CCc3ccc(Cl)cc32)C1 [An_2001/5_17, Clc1cc\2c(CCc3c(cc(Cl)cc3)/C/2=N\OCCN2C[C@@H](CCC2)C(O)=O)cc1] | 5.259
50 | O=C(O)[C@@H]1CCCN(CCOCCN2c3ccccc3CCc3ccc(Cl)cc32)C1 [An_2001/5_27, Clc1cc2N(c3c(CCc2cc1)cccc3)CCOCCN1C[C@@H](CCC1)C(O)=O] | 7.155
